Assay [1] concerns human lung cancer cell line A549. The experiment in a line: CCK-8 antiproliferative assay, A549. The assay is classed as cell-based. The settings on record: Homo sapiens, A549; CCK-8, 48 h, mean ± SD of three experiments. As to the method:
(§1) The antiproliferative activities of target compounds were examined by CCK-8 assay in three cancer cells (human lung cancer cell line A549, human mammary gland tumour cell line MCF-7 and human TNBC cell line MDA-MB-231) and one normal cell (human normal breast cell line MCF10A). All cell lines were sourced from KeyGEN Biotech, […], China, and a standard DMEM medium was applied to all cell cultures then subjected to 24 h incubation at 37 °C in a humidified environment with 5% CO2. After that logarithmic growing cells were plated on 96-well plates with 8,000 cells per well in a […] medium for 24 h incubation at 37 °C with 5% CO2. The DMEM medium with bovine serum was removed from each well. Then, prerequisite target compounds and positive controls were added to different cell lines in a predetermined concentration regiment for 48 h culture.

Assay [2] in a line: Griess assay, NO-releasing capacity. The settings on record: 10^−4 mol/l compound, L-cysteine, 37 °C, 15-180 min. As to the method: The NO-releasing capacity of each target compound was determined by the colorimetric method under the instructions of the manufacturer. Preparation of standard curves of 0, 1.56, 3.13, 6.25, 12.5, 25, 50 and 100 μmol/L nitrite nitrogen series standard solution was prepared. 50 μL to 96-well plate was added respectively and then mixed with 50 μL Griess I and Griess II; the absorption value was measured at 540 nm wavelength. A standard curve was drawn from the obtained data. Compounds were formulated into 10^−4 mol/l with PBS (pH = 7.4) and pharmaceutical DMSO. The newly formulated L-cysteine solution 100 μL ([…]) was added and incubated at 37 °C for 15, 30, 45, 60, 90, 120, 150 and180 min, respectively. Griess I and II recovered to room temperature, 50 μL of compounds 7A–E(a–c) were added respectively into the 96-well plate, and then 50 μL of Griess I and 50 μL of Griess II were added in sequence, with the absorbance tested at 540 nm. The amount of NO released was then calculated according to the standard curve.

Assay [3] has as its system human normal breast cell line MCF10A. The experiment in a line: CCK-8 assay, normal cells MCF10A. Format: cell-based. The settings on record: MCF-10A, CCK-8, 48 h, mean ± SD of three experiments. As to the method: as §1
On the technique in general: Formazan colour is commonly taken as a measure of viable cells.

Assay [4] deals with human TNBC cell line MDA-MB-231. The experiment in a line: CCK-8 antiproliferative assay, MDA-MB-231. Format: cell-based. The settings on record: for IC50: Homo sapiens, MDA-MB-231, 48 h, read-out: IC50 MDA-MB-231; for SI MDA-MB-231 (selectivity index): SI = IC50(MCF-10A)/IC50(MDA-MB-231). Here is the method: as §1
Assay [5] has as its system human mammary gland tumour cell line MCF-7. The experiment in a line: CCK-8 antiproliferative assay, MCF-7. The settings on record: for IC50: Homo sapiens, MCF7, 48 h, read-out: IC50 MCF-7; for SI MCF-7 (selectivity index): SI = IC50(MCF-10A)/IC50(MCF-7). The assay is classed as cell-based. As to the method:
as §1

SMILES strings stand for the structures.

In general, IC50 refers to the concentration needed to halve the response being measured.

As to `COC1=CC2[C@H]3Cc4ccc(OC)c(OC(=O)CCC(=O)OCCCCOc5no[n+]([O-])c5S(=O)(=O)c5ccccc5)c4[C@@]2(CCN3C)CC1=O` (stereo partly drawn) [7Ca, 4–(4-((4-(((4bs,9R)-3,7-Dimethoxy-11-methyl-6-oxo-6,8a,9,10-tetrahydro-5H-9,4b-(epiminoethano)phenanthren-4-yl)oxy)-4-oxobutanoyl)oxy)butoxy)-3-(phenylsulfonyl)-1,2,5-oxadiazole 2-oxide], the half-inhibitory concentration (IC50) is 2970 ± 140 nM in assay [1], 40700 ± 2790 nM in assay [3], 2260 ± 190 nM in assay [4] and 2550 ± 140 nM in assay [5]. Also, the NO peak releasing entry in assay [2] was “exceeding 40 μmol/L”. Moreover, in assay [4], the “SI MDA-MB-231 (selectivity index)” value is 18. Also, in assay [5], the “SI MCF-7 (selectivity index)” value is listed as 15.95.

As for `COC1=CC2[C@H]3Cc4ccc(OC)c(OC(=O)CCC(=O)OCCCCCOc5no[n+]([O-])c5S(=O)(=O)c5ccccc5)c4[C@@]2(CCN3C)CC1=O` (stereo partly drawn) [7Da, 4-((5-((4-(((4bs,9R)-3,7-Dimethoxy-11-methyl-6-oxo-6,8a,9,10-tetrahydro-5H-9,4b-(epiminoethano)phenanthren-4-yl)oxy)-4-oxobutanoyl)oxy)pentyl)oxy)-3-(phenylsulfonyl)-1,2,5-oxadiazole 2-oxide], the half-inhibitory concentration (IC50) in assay [1] worked out at 2790 ± 70 nM; in assay [3], 24700 ± 1670 nM; in assay [4], 920 ± 10 nM; in assay [5] it was 1800 ± 110 nM. Also, in assay [2], the NO peak releasing entry is on record as “exceeding 40 μmol/L”. Moreover, the “SI MDA-MB-231 (selectivity index)” value in assay [4] came to 26.89. Also, the “SI MCF-7 (selectivity index)” value in assay [5] came to 13.74.

Consider `COC1=CC2[C@H]3Cc4ccc(OC)c(OC(=O)c5ccccc5C(=O)OCCCCCOc5no[n+]([O-])c5S(=O)(=O)c5ccccc5)c4[C@@]2(CCN3C)CC1=O` (stereo partly drawn) [7Dc, 4-((5-((2-((((4bs,9R)-3,7-Dimethoxy-11-methyl-6-oxo-6,8a,9,10-tetrahydro-5H-9,4b-(epiminoethano)phenanthren-4-yl)oxy)carbonyl)benzoyl)oxy)pentyl)oxy)-3-(phenylsulfonyl)-1,2,5-oxadiazole 2-oxide], for which the IC50 in assay [1] worked out at 1630 ± 50 nM; in assay [3] it was 19800 ± 1430 nM; in assay [4], 1880 ± 90 nM; in assay [5], 2180 ± 100 nM. For the same compound, the NO peak releasing entry in assay [2] is given as “exceeding 40 μmol/L”. In addition, the “SI MDA-MB-231 (selectivity index)” value in assay [4] was 10.56. In addition, the “SI MCF-7 (selectivity index)” value in assay [5] came to 9.11.
